In ChEMBL document CHEMBL5335804, “Design, synthesis and biological evaluation of 2-phenylaminopyrimidine derivatives as EGFR inhibitors” (Bioorg Med Chem Lett, 2024):

Key:
BaF3 = experiment: cells; conditions: Mus musculus
[1] = Cytotoxicity against human NCI-H838 cells harboring wild type EGFR at 500 nM; assay type: toxicity, cell-based; conditions: read-out: INH
[2] = tested on: Epidermal growth factor receptor (Homo sapiens), P00533 [L858R,T790M,C797S]; conditions: dose 500.0 nM
Chain of Epidermal growth factor receptor (Homo sapiens), P00533 [L858R,T790M,C797S] (P00533 whole entry T790M/C797S/L858R): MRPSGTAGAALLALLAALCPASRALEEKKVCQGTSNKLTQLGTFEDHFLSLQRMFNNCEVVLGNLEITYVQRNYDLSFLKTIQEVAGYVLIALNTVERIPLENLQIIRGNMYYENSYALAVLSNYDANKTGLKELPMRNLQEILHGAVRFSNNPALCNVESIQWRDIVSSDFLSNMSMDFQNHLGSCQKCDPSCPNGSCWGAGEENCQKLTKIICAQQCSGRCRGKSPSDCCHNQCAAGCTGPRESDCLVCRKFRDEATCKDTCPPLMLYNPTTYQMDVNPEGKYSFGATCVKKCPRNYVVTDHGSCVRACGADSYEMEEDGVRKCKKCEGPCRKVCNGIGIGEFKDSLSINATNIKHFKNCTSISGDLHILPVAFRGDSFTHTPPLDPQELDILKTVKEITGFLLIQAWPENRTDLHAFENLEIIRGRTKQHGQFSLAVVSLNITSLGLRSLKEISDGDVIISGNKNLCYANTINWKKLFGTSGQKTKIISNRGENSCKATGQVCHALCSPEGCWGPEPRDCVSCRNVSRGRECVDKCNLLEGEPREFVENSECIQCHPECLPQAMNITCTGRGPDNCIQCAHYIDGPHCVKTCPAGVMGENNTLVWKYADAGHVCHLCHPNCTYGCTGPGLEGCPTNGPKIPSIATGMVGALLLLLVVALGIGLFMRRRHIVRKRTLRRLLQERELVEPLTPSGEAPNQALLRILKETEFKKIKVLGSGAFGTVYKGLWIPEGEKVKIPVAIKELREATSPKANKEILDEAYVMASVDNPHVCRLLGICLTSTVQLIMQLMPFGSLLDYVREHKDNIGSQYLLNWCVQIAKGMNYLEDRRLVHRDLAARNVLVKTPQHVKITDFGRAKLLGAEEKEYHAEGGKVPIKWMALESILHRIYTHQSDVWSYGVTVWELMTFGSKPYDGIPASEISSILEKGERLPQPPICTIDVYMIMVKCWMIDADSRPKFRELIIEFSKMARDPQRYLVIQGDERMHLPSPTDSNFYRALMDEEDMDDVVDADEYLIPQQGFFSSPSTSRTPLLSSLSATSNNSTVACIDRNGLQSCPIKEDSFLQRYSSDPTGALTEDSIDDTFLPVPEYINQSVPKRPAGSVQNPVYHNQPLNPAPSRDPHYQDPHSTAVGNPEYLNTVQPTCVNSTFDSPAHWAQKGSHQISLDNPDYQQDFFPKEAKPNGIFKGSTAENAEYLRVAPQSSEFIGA

## COc1cc(N2CCC(N3CCN(C)CC3)CC2)c(C)cc1Nc1nccc(-n2cc(CN[C@H](C)CO)c(-c3ccccc3)n2)n1
BaF3
  IC50: 0.26 µM
[1]
  cytotoxicity at 0.5 µM: 17.1%

## COc1cc(N2CCC(N3CCN(C)CC3)CC2)c(C)cc1Nc1nccc(-n2cc(CNC(CO)C(C)C)c(-c3ccccc3)n2)n1 (stereo not drawn)
BaF3
  IC50: 0.292 µM
[1]
  cytotoxicity at 0.5 µM: 31.8%

## COc1cc(N2CCC(N3CCN(C)CC3)CC2)c(C)cc1Nc1nccc(-n2cc(CN[C@@H](C)CO)c(-c3ccccc3)n2)n1
BaF3
  IC50: 0.106 µM
[1]
  cytotoxicity at 0.5 µM: 14.9%

## COc1cc(N2CCC(N3CCN(C)CC3)CC2)ccc1Nc1ncc(Cl)c(Nc2ccccc2P(C)(C)=O)n1 [BRIGATINIB]
[2]
  inhibition: 84.6%
BaF3
  IC50: 0.542 µM
[1]
  cytotoxicity at 0.5 µM: 92.4%

## COc1cc(N2CCC(N3CCN(C)CC3)CC2)c(C)cc1Nc1nccc(-n2cc(CNCCO)c(-c3ccccc3)n2)n1
BaF3
  IC50: 0.485 µM
[1]
  cytotoxicity at 0.5 µM: 33.2%

## COc1cc(N2CCC(N3CCN(C)CC3)CC2)c(C)cc1Nc1nccc(-n2cc(CNC(C)CO)c(-c3ccccc3)n2)n1 (stereo not drawn)
BaF3
  IC50: 0.143 µM
[1]
  cytotoxicity at 0.5 µM: 25.6%
